For orientation: EC50 means the concentration needed to bring the measured effect to its halfway point.

Like-named read-outs stand apart in the source and are kept apart here. Starred links: 1 amine or outer side, 2 acyl side, 3 side chain; linkers in the order of their positions; H or OH if unused. Non-standard residues stand in square brackets, D forms with d. Residues, ends and D or L forms follow the SMILES beside them. Groups on a side chain read outwards from the residue. *: point of attachment. C18 diacid = O=C(O)CCCCCCCCCCCCCCCCC(=O)*; Dip = N[C@H](C(=O)O)C(c1ccccc1)c1ccccc1; γGlu = O=C(O)[C@H](CCC(=O)[*:2])N[*:1]; Stearoyl = CCCCCCCCCCCCCCCCCC(=O)*; Palmitoyl = CCCCCCCCCCCCCCCC(=O)*; αMeF = C[C@](N)(Cc1ccccc1)C(=O)O; PEG4 = NCCOCCOCCOCCOCCC(=O)O; AEEA = NCCOCCOCC(=O)O; Aib = CC(C)(N)C(=O)O

In assay [1] the target is human GLP-1 receptor (hGLP-1R) (Homo sapiens, UniProt P43220). Kind of assay: cAMP production (HTRF) in CHO cells expressing hGLP-1R. The note with it: for EC50: cAMP in CHO hGLP-1R cells, geometric mean, read-out: hGLP-1R EC50; for % Relative Potency Ratio: % GLP-1R activity relative to GLP-1 / % GlucR activity relative to glucagon. The class given is cell-based. Set-up: expressed in transfected cells. Put shortly: (§1)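 Cells were resuspended in assay buffer at batch-optimized density, typically 1×10^5 cells/mL for hGLP-1R and 2×10^5 cells/mL for hGCGR. After 30 min incubation at room temperature with compound, cAMP was measured by two-step HTRF. EC50 values came from 4-parameter logistic fits of % Delta F.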
A general note: Cyclic AMP is a second messenger, typically raised through Gs and lowered through Gi signalling.

Assay [2] addresses human glucagon receptor (hGCGR) (Homo sapiens, UniProt P47871). Kind of assay: cAMP production (HTRF) in CHO cells expressing hGCGR. The class given is cell-based. Also on record: expressed in transfected cells. The note with it: cAMP in CHO hGCGR cells, geometric mean, read-out: hGluc-R EC50. Put shortly:
as §1

The mark [3] stands for this setting: Table 6, peptides modified at position 17.
[4] abbreviates: Table 7, peptides modified at position 20.

Chain of human glucagon receptor (hGCGR) (P47871 26-477): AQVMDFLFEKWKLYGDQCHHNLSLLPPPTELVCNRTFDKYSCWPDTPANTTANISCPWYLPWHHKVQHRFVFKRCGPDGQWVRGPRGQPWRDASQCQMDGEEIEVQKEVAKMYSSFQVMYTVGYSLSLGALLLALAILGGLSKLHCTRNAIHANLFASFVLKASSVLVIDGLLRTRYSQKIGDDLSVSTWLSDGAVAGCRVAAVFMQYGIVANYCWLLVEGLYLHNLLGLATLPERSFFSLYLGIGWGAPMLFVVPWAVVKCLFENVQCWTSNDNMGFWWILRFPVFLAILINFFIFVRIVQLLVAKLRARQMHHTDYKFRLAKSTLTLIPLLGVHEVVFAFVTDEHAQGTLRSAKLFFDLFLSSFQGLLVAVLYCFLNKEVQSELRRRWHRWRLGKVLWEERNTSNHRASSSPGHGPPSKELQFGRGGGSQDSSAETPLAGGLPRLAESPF
Chain of human GLP-1 receptor (hGLP-1R) (P43220 24-463): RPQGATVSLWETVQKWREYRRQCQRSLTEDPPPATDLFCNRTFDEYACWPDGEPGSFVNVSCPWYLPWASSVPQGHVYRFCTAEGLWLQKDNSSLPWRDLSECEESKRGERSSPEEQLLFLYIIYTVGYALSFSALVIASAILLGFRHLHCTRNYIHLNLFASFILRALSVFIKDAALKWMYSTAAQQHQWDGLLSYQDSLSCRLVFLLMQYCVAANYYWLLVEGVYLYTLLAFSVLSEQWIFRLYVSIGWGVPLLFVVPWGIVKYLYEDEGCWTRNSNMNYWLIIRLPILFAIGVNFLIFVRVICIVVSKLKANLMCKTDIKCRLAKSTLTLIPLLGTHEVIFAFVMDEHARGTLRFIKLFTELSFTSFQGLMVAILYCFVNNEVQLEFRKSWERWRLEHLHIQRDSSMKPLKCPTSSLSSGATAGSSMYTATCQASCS

Consider `CCCCCCCCCCCCCCCCCC(=O)N[C@@H](CCC(=O)N[C@@H](CCC(=O)NCCOCCOCCOCCOCCC(=O)NCCCC[C@H](NC(=O)[C@H](CO)NC(=O)[C@H](CC(=O)O)NC(=O)[C@H](CC(C)C)NC(=O)[C@@H](NC(=O)[C@H](CCCCN)NC(=O)[C@H](CO)NC(=O)[C@@H](NC(=O)[C@H](CC(=O)O)NC(=O)[C@H](CO)NC(=O)[C@@H](NC(=O)[C@](C)(Cc1ccccc1)NC(=O)[C@H](CO)NC(=O)CNC(=O)[C@H](CCC(N)=O)NC(=O)[C@H](CO)NC(=O)[C@@H](N)Cc1c[nH]cn1)[C@@H](C)O)C(C)C)C(c1ccccc1)c1ccccc1)C(=O)N[C@@H](C)C(=O)N[C@@H](C)C(=O)N[C@@H](CCC(N)=O)C(=O)N[C@@H](CC(=O)O)C(=O)N[C@@](C)(Cc1ccccc1)C(=O)N[C@H](C(=O)N[C@@H](CCC(=O)O)C(=O)NC(C)(C)C(=O)N[C@H](C(=O)N[C@H](C(=O)N[C@@H](CC(N)=O)C(=O)N[C@H](C(N)=O)[C@@H](C)O)[C@@H](C)CC)[C@@H](C)CC)C(C)C)C(=O)O)C(=O)O` [Peptide 56] (H-HSQGS[αMeF]TSDVSK[Dip]LDSK([PEG4-γGlu-γGlu-Stearoyl])AAQD[αMeF]VE[Aib]IINT-NH2; N-terminus assumed), for which the 50% effective concentration (EC50) is 0.00486 nM in assay [1] (setting [3]) and 0.0109 nM in assay [2] (setting [3]). Also, in assay [1] (Table 6), the “% Relative Potency Ratio” value worked out at 4.4.

With `CC(C)C[C@H](NC(=O)[C@H](Cc1c[nH]c2ccccc12)NC(=O)[C@H](CCCNC(=N)N)NC(=O)[C@@H](NC(=O)[C@H](Cc1ccccc1)NC(=O)[C@H](CC(=O)O)NC(=O)[C@H](CCC(N)=O)NC(=O)[C@H](C)NC(=O)[C@H](CCCNC(=N)N)NC(=O)[C@H](CCCCNC(=O)COCCOCCNC(=O)COCCOCCNC(=O)CC[C@H](NC(=O)CCCCCCCCCCCCCCCCC(=O)O)C(=O)O)NC(=O)[C@@H](NC(=O)[C@H](CC(=O)O)NC(=O)[C@H](CC(C)C)NC(=O)[C@](C)(Cc1ccccc1)NC(=O)[C@H](CCCCN)NC(=O)[C@H](CO)NC(=O)[C@@H](NC(=O)[C@H](CC(=O)O)NC(=O)[C@H](CO)NC(=O)[C@@H](NC(=O)[C@H](Cc1ccccc1)NC(=O)[C@@H](NC(=O)CNC(=O)[C@H](CCC(N)=O)NC(=O)C(C)(C)NC(=O)[C@@H](N)Cc1c[nH]cn1)[C@@H](C)O)[C@@H](C)O)C(C)C)[C@@H](C)O)C(C)C)C(=O)N[C@@H](CC(C)C)C(=O)N[C@@H](CCC(=O)O)C(=O)NC(C)(C)C(=O)N[C@@H](CCCCN)C(N)=O` [Peptide 478] (H-H[Aib]QGTFTSDVSK[αMeF]LDTK([AEEA-AEEA-γGlu-C18 diacid])RAQDFVRWLLE[Aib]K-NH2), the concentration for a half-maximal effect (EC50) is 0.00918 nM in assay [1] (setting [3]) and 0.19 nM in assay [2] (setting [3]). Moreover, the “% Relative Potency Ratio” value in assay [1] (Table 6) worked out at 40.9.

With `CC(C)C[C@H](NC(=O)[C@H](Cc1c[nH]c2ccccc12)NC(=O)[C@H](CCC(N)=O)NC(=O)[C@@H](NC(=O)[C@H](Cc1ccccc1)NC(=O)[C@H](CC(=O)O)NC(=O)[C@H](CCCNC(=N)N)NC(=O)[C@H](C)NC(=O)[C@H](CCCNC(=N)N)NC(=O)[C@H](CCCCNC(=O)COCCOCCNC(=O)COCCOCCNC(=O)CC[C@H](NC(=O)CCCCCCCCCCCCCCCCC(=O)O)C(=O)O)NC(=O)[C@@H](NC(=O)[C@H](CC(=O)O)NC(=O)[C@H](CC(C)C)NC(=O)[C@](C)(Cc1ccccc1)NC(=O)[C@H](CCCCN)NC(=O)[C@H](CO)NC(=O)[C@@H](NC(=O)[C@H](CC(=O)O)NC(=O)[C@H](CO)NC(=O)[C@@H](NC(=O)[C@H](Cc1ccccc1)NC(=O)[C@@H](NC(=O)CNC(=O)[C@H](CCC(N)=O)NC(=O)C(C)(C)NC(=O)[C@@H](N)Cc1c[nH]cn1)[C@@H](C)O)[C@@H](C)O)C(C)C)[C@@H](C)O)C(C)C)C(=O)N[C@@H](CC(C)C)C(=O)N[C@@H](CCCNC(=N)N)C(=O)NC(C)(C)C(=O)N[C@@H](C)C(=O)O` [Peptide 501] (H-H[Aib]QGTFTSDVSK[αMeF]LDTK([AEEA-AEEA-γGlu-C18 diacid])RARDFVQWLLR[Aib]A-OH; N-terminus assumed), the EC50 in assay [1] (setting [3]) was found to be 0.0265 nM; in assay [2] (setting [3]), 0.0756 nM. Besides, the “% Relative Potency Ratio” value in assay [1] (Table 6) is given as 5.6.

For `CC(C)C[C@H](NC(=O)C(C)(C)NC(=O)[C@H](CCC(N)=O)NC(=O)[C@@H](NC(=O)[C@H](Cc1ccccc1)NC(=O)[C@H](CC(=O)O)NC(=O)[C@H](CCCCNC(=O)COCCOCCNC(=O)COCCOCCNC(=O)CC[C@H](NC(=O)CCCCCCCCCCCCCCCCC(=O)O)C(=O)O)NC(=O)[C@H](C)NC(=O)C(C)(C)NC(=O)[C@H](CCCNC(=N)N)NC(=O)[C@H](CO)NC(=O)[C@H](CC(=O)O)NC(=O)[C@H](CC(C)C)NC(=O)[C@](C)(Cc1ccccc1)NC(=O)[C@H](CCCCN)NC(=O)[C@H](CO)NC(=O)[C@@H](NC(=O)[C@H](CC(=O)O)NC(=O)[C@H](CO)NC(=O)[C@@H](NC(=O)[C@H](Cc1ccccc1)NC(=O)[C@@H](NC(=O)CNC(=O)[C@H](CCC(N)=O)NC(=O)C(C)(C)NC(=O)[C@@H](N)Cc1c[nH]cn1)[C@@H](C)O)[C@@H](C)O)C(C)C)C(C)C)C(=O)N[C@H](C(=O)N[C@@H](C)C(=O)N[C@H](C(N)=O)[C@@H](C)O)C(C)C` [Peptide 314] (H-H[Aib]QGTFTSDVSK[αMeF]LDSR[Aib]AK([AEEA-AEEA-γGlu-C18 diacid])DFVQ[Aib]LVAT-NH2; N-terminus assumed), the concentration giving a half-maximal response (EC50) was determined as 0.0308 nM in assay [1] (setting [4]) and 6.83 nM in assay [2] (setting [4]). For the same molecule, the “% Relative Potency Ratio” value in assay [1] (Table 7) worked out at 439.3.

As to `CC(C)C[C@H](NC(=O)[C@H](Cc1c[nH]c2ccccc12)NC(=O)[C@H](CCC(N)=O)NC(=O)[C@@H](NC(=O)[C@H](Cc1ccccc1)NC(=O)[C@H](CC(=O)O)NC(=O)[C@H](CCCNC(=N)N)NC(=O)[C@H](C)NC(=O)[C@H](CCCNC(=N)N)NC(=O)[C@H](CCCCNC(=O)COCCOCCNC(=O)COCCOCCNC(=O)CC[C@H](NC(=O)CCCCCCCCCCCCCCCCC(=O)O)C(=O)O)NC(=O)[C@@H](NC(=O)[C@H](CC(=O)O)NC(=O)[C@H](CC(C)C)NC(=O)[C@](C)(Cc1ccccc1)NC(=O)[C@H](CCCCN)NC(=O)[C@H](CO)NC(=O)[C@@H](NC(=O)[C@H](CC(=O)O)NC(=O)[C@H](CO)NC(=O)[C@@H](NC(=O)[C@H](Cc1ccccc1)NC(=O)[C@@H](NC(=O)CNC(=O)[C@H](CCC(N)=O)NC(=O)C(C)(C)NC(=O)[C@@H](N)Cc1c[nH]cn1)[C@@H](C)O)[C@@H](C)O)C(C)C)[C@@H](C)O)C(C)C)C(=O)N[C@@H](CC(C)C)C(=O)NC(C)(C)C(=O)N[C@H](C(=O)N[C@@H](CCC(=O)O)C(N)=O)[C@@H](C)O` [Peptide 489] (H-H[Aib]QGTFTSDVSK[αMeF]LDTK([AEEA-AEEA-γGlu-C18 diacid])RARDFVQWLL[Aib]TE-NH2; N-terminus assumed), the EC50 in assay [1] (setting [3]) worked out at 0.0228 nM; in assay [2] (setting [3]), 0.168 nM. For the same molecule, the “% Relative Potency Ratio” value in assay [1] (Table 6) is 14.5.

Regarding `CC(C)C[C@H](NC(=O)[C@](C)(Cc1ccccc1)NC(=O)[C@H](CCCCN)NC(=O)[C@H](CO)NC(=O)[C@@H](NC(=O)[C@H](CC(=O)O)NC(=O)[C@H](CO)NC(=O)[C@@H](NC(=O)[C@H](Cc1ccccc1)NC(=O)[C@@H](NC(=O)CNC(=O)[C@H](CCC(N)=O)NC(=O)C(C)(C)NC(=O)[C@@H](N)Cc1c[nH]cn1)[C@@H](C)O)[C@@H](C)O)C(C)C)C(=O)N[C@@H](CC(=O)O)C(=O)N[C@@H](CO)C(=O)N[C@@H](CCCCNC(=O)COCCOCCNC(=O)COCCOCCNC(=O)CC[C@H](NC(=O)CCCCCCCCCCCCCCCCC(=O)O)C(=O)O)C(=O)N[C@@H](CCCNC(=N)N)C(=O)N[C@@H](C)C(=O)N[C@@H](CCC(N)=O)C(=O)N[C@@H](CC(=O)O)C(=O)N[C@@H](Cc1ccccc1)C(=O)N[C@H](C(=O)N[C@@H](CCCNC(=N)N)C(=O)N[C@@H](Cc1c[nH]c2ccccc12)C(=O)N[C@H](C(=O)N[C@H](C(=O)N[C@@H](CCC(=O)O)C(=O)NC(C)(C)C(=O)NCC(=O)O)C(C)C)C(C)C)C(C)C` [Peptide 149] (H-H[Aib]QGTFTSDVSK[αMeF]LDSK([AEEA-AEEA-γGlu-C18 diacid])RAQDFVRWVVE[Aib]G-OH; N-terminus assumed), the 50% effective concentration (EC50) in assay [1] (setting [3]) was 0.00871 nM; in assay [2] (setting [3]), 2.65 nM. Further, in assay [1] (Table 6), the “% Relative Potency Ratio” value is on record as 602.8.

For the molecule `CCCCCCCCCCCCCCCC(=O)N[C@@H](CCC(=O)N[C@@H](CCC(=O)NCCOCCOCCOCCOCCC(=O)NCCCC[C@H](NC(=O)[C@H](CO)NC(=O)[C@H](CC(=O)O)NC(=O)[C@H](CC(C)C)NC(=O)[C@](C)(Cc1ccccc1)NC(=O)[C@H](CCCCN)NC(=O)[C@H](CO)NC(=O)[C@@H](NC(=O)[C@H](CC(=O)O)NC(=O)[C@H](CO)NC(=O)[C@@H](NC(=O)[C@](C)(Cc1ccccc1)NC(=O)[C@H](CO)NC(=O)CNC(=O)[C@H](CCC(N)=O)NC(=O)C(C)(C)NC(=O)[C@@H](N)Cc1c[nH]cn1)[C@@H](C)O)C(C)C)C(=O)N[C@@H](C)C(=O)N[C@@H](C)C(=O)N[C@@H](CCC(N)=O)C(=O)N[C@@H](CC(=O)O)C(=O)N[C@@](C)(Cc1ccccc1)C(=O)N[C@H](C(=O)N[C@@H](CCC(=O)O)C(=O)NC(C)(C)C(=O)N[C@@H](CC(C)C)C(=O)N[C@@H](CCC(=O)O)C(=O)N[C@@H](C)C(=O)NCC(=O)NCC(N)=O)C(C)C)C(=O)O)C(=O)O` [Peptide 72] (H-H[Aib]QGS[αMeF]TSDVSK[αMeF]LDSK([PEG4-γGlu-γGlu-Palmitoyl])AAQD[αMeF]VE[Aib]LEAGG-NH2), the EC50 is 0.00342 nM in assay [1] (setting [3]) and 0.0737 nM in assay [2] (setting [3]). Besides, the “% Relative Potency Ratio” value in assay [1] (Table 6) was 42.6.

The values above are taken from patent US20250353891A1 (MEDIMMUNE LIMITED, priority 2022, published 2025).
